Source: patent US20260015333A1, “COMPOUNDS AND METHODS FOR INHIBITION OF THE EVOLUTION OF […]” (priority 2022, published 2026)

How the values were obtained:
Mfd [1] = biological target: T1, Mfd (Salmonella typhimurium, UniProt Q8ZQ01); assay: biochemical; parameters: species or system S. typhimurium
Procedure: FIGS. 2A-2D depict how ARM-1 affects Mfd's biochemical activity. FIG. 2A depicts how the kd of ARM-1 was determined using microscale thermophoresis. Data shown represent a minimum of three independent experiments. FIG. 2B depicts a NADH-coupled ATPase assay. ATP hydrolysis by Mfd was coupled to NADH oxidation. Phosphoenolpyruvate is converted to pyruvate by pyruvate kinase, transferring a phosphate group onto ADP, which is only present in the reaction following ATP hydrolysis by Mfd. Pyruvate is then converted to lactate by lactate dehydrogenase, oxidizing NADH to NAD^+. Absorbance at 340 nm by NADH is used to monitor the reaction. Data shown represent a minimum of 3 biological replicates. FIG. 2C depicts a transcription roadblock assay. A P32-labled 176 bp PCR fragment was incubated with E. coli RNAP along with saturating concentrations of ATP, GTP, and UTP. 100 nM S. typhimurium ST19 Mfd preincubated with indicated concentrations of ARM-1 was added and the reaction allowed to proceed for 6 minutes. DNA products were then resolved on a polyacrylamide gel and analyzed by phosphorimaging. […] Quantification of these gels is shown below each lane. […]
ATPase assays were performed as described in Kiiansita et al., 2003. […] To start reaction, varying quantities of ATP were added and absorbance at 340 nm was measured every 60 seconds for 1 hour in an Epoch2 microplate spectrophotometer (BioTek). […]

all species tested = assay: Growth curves with increasing concentrations of ARM-1; format: cell-based; settings: across all species tested
Procedure: (§1) FIG. 10 depicts growth curves of indicated species in the presence of increasing concentrations of ARM-1. Precultures of each species were grown with appropriate antibiotic selection, then diluted back to OD600 0.05 in a 96 well plate. Indicated concentrations of ARM-1 were added, and plates incubated overnight at 37° C. with shaking. OD measurements taken every 60 s by BioTek plate reader. Data shown are representative of at least 6 biological replicates. Growth curve for S. typhimurium also confirms MIC of 400 μM ARM-1 for this species, with no growth observed over the experimental timeframe.

S. typhimurium = assay: as above; format: cell-based
Procedure: as §1

Mfd [2] = biological target: T1, Mfd; assay: Translocase assay (in vivo luminescence reporter system); format: cell-based, S. typhimurium
Excerpt: FIGS. 1A-1C depict an in vivo high throughput screen identifing lead compound ARM-1. FIG. 1A is a schematic of in vivo screen design. In the upper panel, when Mfd is present, RNAP complexes stalled at the lacI-bound operator sequence are quickly removed, resulting in little to no transcription of the lux operon and low luminescence output. In the lower panel, when Mfd is either absent or inhibited, RNAP complexes stalled at the operator are not removed and are able to proceed during temporary dissociation of LacI, resulting in relatively high levels of luminescent output. FIG. 1B depicts the structure of the compound, ARM-1. […] Relative luminescence is normalized to no compound, solvent control, and 0.5% DMSO. *p<0.05 ***p<0.001.
In order to determine if Mfd's activity and/or RNAP termination function could be inactivated through the use of a small molecule, a high-throughput in vivo screen of roughly 250,000 compounds was conducted. […] The reporter system consists of one plasmid with a lac operator (lacO) encoded directly upstream of the lux operon which expresses proteins that produce luciferase, leading to easily detectable luminescence. […] The LacI protein which binds to lacO is a barrier to transcription; RNAP is unable to readily pass the bound protein and therefore, the transcription machinery stalls. […]

T1 sequence (Q8ZQ01 entry or part of it): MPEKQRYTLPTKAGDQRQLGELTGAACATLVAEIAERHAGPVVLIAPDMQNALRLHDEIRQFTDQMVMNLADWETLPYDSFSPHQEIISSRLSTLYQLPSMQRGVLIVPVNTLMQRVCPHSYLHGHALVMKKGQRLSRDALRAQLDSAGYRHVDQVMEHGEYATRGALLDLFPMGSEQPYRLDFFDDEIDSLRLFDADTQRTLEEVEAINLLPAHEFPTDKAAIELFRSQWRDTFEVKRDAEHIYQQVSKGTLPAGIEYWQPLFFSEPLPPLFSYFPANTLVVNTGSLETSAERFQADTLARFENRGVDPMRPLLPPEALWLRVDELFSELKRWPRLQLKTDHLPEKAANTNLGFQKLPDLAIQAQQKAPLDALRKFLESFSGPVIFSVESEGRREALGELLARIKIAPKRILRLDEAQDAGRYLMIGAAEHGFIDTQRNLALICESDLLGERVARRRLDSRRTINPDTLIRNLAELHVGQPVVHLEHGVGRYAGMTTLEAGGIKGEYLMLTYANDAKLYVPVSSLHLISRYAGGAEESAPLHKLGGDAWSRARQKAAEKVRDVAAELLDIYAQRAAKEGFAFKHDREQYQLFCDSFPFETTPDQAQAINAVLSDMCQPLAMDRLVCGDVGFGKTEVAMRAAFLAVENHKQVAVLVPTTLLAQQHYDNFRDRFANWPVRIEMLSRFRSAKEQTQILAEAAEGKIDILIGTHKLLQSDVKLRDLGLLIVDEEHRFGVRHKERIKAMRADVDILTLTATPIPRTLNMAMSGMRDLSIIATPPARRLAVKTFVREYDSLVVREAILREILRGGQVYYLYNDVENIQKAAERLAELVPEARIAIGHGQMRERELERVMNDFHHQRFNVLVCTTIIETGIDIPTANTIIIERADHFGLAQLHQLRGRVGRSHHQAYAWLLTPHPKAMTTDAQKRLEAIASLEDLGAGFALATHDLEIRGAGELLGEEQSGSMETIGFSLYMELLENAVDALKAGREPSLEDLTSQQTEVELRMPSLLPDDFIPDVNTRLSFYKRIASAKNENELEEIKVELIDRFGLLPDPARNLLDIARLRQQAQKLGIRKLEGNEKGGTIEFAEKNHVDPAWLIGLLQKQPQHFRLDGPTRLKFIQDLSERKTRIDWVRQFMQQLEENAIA

For `Cc1cc(Br)ccc1-c1ccc(CNCCCN(C)C)o1` [ARM-1, N^1-((5-(4-bromo-2-methylphenyl)furan-2-yl)methyl)-N^3,N^3-dimethylpropane-1,3-diamine], the “ATP hydrolysis by Mfd” value (Mfd [1]; 6.25 μM to 50 μM ARM-1, ratios of 125 to 1000 ARM-1 per Mfd) was “dose dependent increase”, the fold induction at 50 µM (Mfd [1]; 50 μM ARM-1, read-out: ATPase activity enhancement) was roughly 3 and the “doubling time, treated versus untreated population” value (all species tested) was “consistent”. For the same compound, the MIC (S. typhimurium; Salmonella enterica, TYPHIMURIUM, growth curve, no growth observed over the experimental timeframe) was 400 µM, the growth defects (S. typhimurium; at the ARM-1 concentrations used for ChIP) was “no growth defects” and the “effect on luminescence in cells lacking Mfd” value (Mfd [2]) was “no effect”.
